Source: ChEMBL document CHEMBL3885881, “DrugMatrix”

Species: Rattus norvegicus
Assay: DrugMatrix - Regimen: Daily Repeat
Assay type: toxicity, organism-based, Sprague-Dawley
Design: regimen Daily Repeat, gender Male, age 6-8 weeks
Conditions: in vivo, po, route oral GAVAGE, vehicle 100 % WATER; for ABSOLUTE BASOPHIL / ABSOLUTE EOSINOPHIL / ABSOLUTE LYMPHOCYTE / ABSOLUTE MONOCYTE / ABSOLUTE SEGMENTED NEUTROPHIL / BASOPHIL / EOSINOPHIL / ERYTHROCYTE COUNT / HEMATOCRIT / HEMOGLOBIN / LEUKOCYTE COUNT / LYMPHOCYTE / MEAN CORPUSCULAR HEMOGLOBIN / MEAN CORPUSCULAR HEMOGLOBIN CONCENTRATION / MEAN CORPUSCULAR VOLUME / MONOCYTE / NEUTROPHIL / NUCLEATED RED BLOOD CELLS / PLATELET COUNT: tissue Blood; for ALANINE AMINOTRANSFERASE / ALBUMIN / ALKALINE PHOSPHATASE / ASPARTATE AMINOTRANSFERASE / BLOOD UREA NITROGEN / CARBON DIOXIDE / CHLORIDE / CHOLESTEROL / CREATINE PHOSPHOKINASE / CREATININE / GLUCOSE / LACTATE DEHYDROGENASE / LIPASE / PHOSPHORUS / POTASSIUM / SODIUM / TOTAL BILIRUBIN / TOTAL PROTEIN / URIC ACID: tissue Plasma
[1] = 0 mg/kg, 72 h, dose level Control, time 3 day
[2] = 0 mg/kg, 120 h, dose level Control, time 5 day
[3] = 30 mg/kg, 72 h, dose level Low, time 3 day
[4] = 30 mg/kg, 120 h, dose level Low, time 5 day

COc1cccc(C2(O)CCCCC2CN(C)C)c1 (configuration not stated) [TRAMADOL]
ABSOLUTE BASOPHIL [1]: 0 CELLS/uL | ABSOLUTE EOSINOPHIL [1]: 32.5 CELLS/uL | ABSOLUTE LYMPHOCYTE [1]: 9305.83 CELLS/uL | ABSOLUTE MONOCYTE [1]: 43.83 CELLS/uL | ABSOLUTE SEGMENTED NEUTROPHIL [1]: 817.83 CELLS/uL | BASOPHIL [1]: 0% | EOSINOPHIL [1]: 0.33% | ERYTHROCYTE COUNT [1]: 5.38 x10E6/uL | HEMATOCRIT [1]: 33.63% | HEMOGLOBIN [1]: 13.17 G/DL | LEUKOCYTE COUNT [1]: 10.2 x10E3/uL | LYMPHOCYTE [1]: 91.17% | MEAN CORPUSCULAR HEMOGLOBIN [1]: 24.5 pg | MEAN CORPUSCULAR HEMOGLOBIN CONCENTRATION [1]: 39.13 G/DL | MEAN CORPUSCULAR VOLUME [1]: 62.53 fL | MONOCYTE [1]: 0.5% | NEUTROPHIL [1]: 8% | NUCLEATED RED BLOOD CELLS [1]: 0.17 /100WBC | PLATELET COUNT [1]: 858 x10E3/uL | ALANINE AMINOTRANSFERASE [1]: 55.67 u/L | ALBUMIN [1]: 4.07 G/DL | ALKALINE PHOSPHATASE [1]: 337 u/L | ASPARTATE AMINOTRANSFERASE [1]: 84 u/L | BLOOD UREA NITROGEN [1]: 13.17 mg/dL | CARBON DIOXIDE [1]: 34.17 mmol/L | CHLORIDE [1]: 99.33 MEQ/L | CHOLESTEROL [1]: 78.83 mg/dL | CREATINE PHOSPHOKINASE [1]: 576.83 u/L | CREATININE [1]: 0.17 mg/dL | GLUCOSE [1]: 152.67 mg/dL | LACTATE DEHYDROGENASE [1]: 147.83 u/L | LIPASE [1]: 9.5 u/L | PHOSPHORUS [1]: 10.78 mg/dL | POTASSIUM [1]: 6.34 MEQ/L | SODIUM [1]: 144.12 MEQ/L | TOTAL BILIRUBIN [1]: 0.18 mg/dL | TOTAL PROTEIN [1]: 6.08 G/DL | URIC ACID [1]: 0.65 mg/dL | ABSOLUTE BASOPHIL [2]: 0 CELLS/uL | ABSOLUTE EOSINOPHIL [2]: 31.17 CELLS/uL | ABSOLUTE LYMPHOCYTE [2]: 7918.33 CELLS/uL | ABSOLUTE MONOCYTE [2]: 58.33 CELLS/uL | ABSOLUTE SEGMENTED NEUTROPHIL [2]: 725.5 CELLS/uL | BASOPHIL [2]: 0% | EOSINOPHIL [2]: 0.33% | ERYTHROCYTE COUNT [2]: 5.32 x10E6/uL | HEMATOCRIT [2]: 33.53% | HEMOGLOBIN [2]: 13.17 G/DL | LEUKOCYTE COUNT [2]: 8.73 x10E3/uL | LYMPHOCYTE [2]: 90.33% | MEAN CORPUSCULAR HEMOGLOBIN [2]: 24.82 pg | MEAN CORPUSCULAR HEMOGLOBIN CONCENTRATION [2]: 39.33 G/DL | MEAN CORPUSCULAR VOLUME [2]: 63.12 fL | MONOCYTE [2]: 0.67% | NEUTROPHIL [2]: 8.67% | NUCLEATED RED BLOOD CELLS [2]: 0 /100WBC | PLATELET COUNT [2]: 1144.83 x10E3/uL | ALANINE AMINOTRANSFERASE [2]: 60.5 u/L | ALBUMIN [2]: 3.97 G/DL | ALKALINE PHOSPHATASE [2]: 343.17 u/L | ASPARTATE AMINOTRANSFERASE [2]: 80.83 u/L | BLOOD UREA NITROGEN [2]: 15 mg/dL | CARBON DIOXIDE [2]: 31 mmol/L | CHLORIDE [2]: 99.75 MEQ/L | CHOLESTEROL [2]: 71.5 mg/dL | CREATINE PHOSPHOKINASE [2]: 237.17 u/L | CREATININE [2]: 0.17 mg/dL | GLUCOSE [2]: 137 mg/dL | LACTATE DEHYDROGENASE [2]: 146.17 u/L | LIPASE [2]: 11.5 u/L | PHOSPHORUS [2]: 10.13 mg/dL | POTASSIUM [2]: 6 MEQ/L | SODIUM [2]: 145 MEQ/L | TOTAL BILIRUBIN [2]: 0.13 mg/dL | TOTAL PROTEIN [2]: 5.82 G/DL | URIC ACID [2]: 0.62 mg/dL | ABSOLUTE BASOPHIL [3]: 0 CELLS/uL | ABSOLUTE EOSINOPHIL [3]: 0 CELLS/uL | ABSOLUTE LYMPHOCYTE [3]: 6045 CELLS/uL | ABSOLUTE MONOCYTE [3]: 124.33 CELLS/uL | ABSOLUTE SEGMENTED NEUTROPHIL [3]: 697.33 CELLS/uL | BASOPHIL [3]: 0% | EOSINOPHIL [3]: 0% | ERYTHROCYTE COUNT [3]: 5.35 x10E6/uL | HEMATOCRIT [3]: 33.3% | HEMOGLOBIN [3]: 13.03 G/DL | LEUKOCYTE COUNT [3]: 6.87 x10E3/uL | LYMPHOCYTE [3]: 88.33% | MEAN CORPUSCULAR HEMOGLOBIN [3]: 24.4 pg | MEAN CORPUSCULAR HEMOGLOBIN CONCENTRATION [3]: 39.13 G/DL | MEAN CORPUSCULAR VOLUME [3]: 62.23 fL | MONOCYTE [3]: 1.67% | NEUTROPHIL [3]: 10% | NUCLEATED RED BLOOD CELLS [3]: 0.67 /100WBC | PLATELET COUNT [3]: 1017 x10E3/uL | ALANINE AMINOTRANSFERASE [3]: 47.33 u/L | ALBUMIN [3]: 4.13 G/DL | ALKALINE PHOSPHATASE [3]: 434.67 u/L | ASPARTATE AMINOTRANSFERASE [3]: 82.67 u/L | BLOOD UREA NITROGEN [3]: 12.33 mg/dL | CARBON DIOXIDE [3]: 34.67 mmol/L | CHLORIDE [3]: 99.67 MEQ/L | CHOLESTEROL [3]: 72.33 mg/dL | CREATINE PHOSPHOKINASE [3]: 347.67 u/L | CREATININE [3]: 0.16 mg/dL | GLUCOSE [3]: 136.33 mg/dL | LACTATE DEHYDROGENASE [3]: 123.33 u/L | LIPASE [3]: 9.33 u/L | PHOSPHORUS [3]: 11 mg/dL | POTASSIUM [3]: 6.23 MEQ/L | SODIUM [3]: 144.43 MEQ/L | TOTAL BILIRUBIN [3]: 0.2 mg/dL | TOTAL PROTEIN [3]: 5.93 G/DL | URIC ACID [3]: 0.8 mg/dL | ABSOLUTE BASOPHIL [4]: 0 CELLS/uL | ABSOLUTE EOSINOPHIL [4]: 97.33 CELLS/uL | ABSOLUTE LYMPHOCYTE [4]: 8968.67 CELLS/uL | ABSOLUTE MONOCYTE [4]: 0 CELLS/uL | ABSOLUTE SEGMENTED NEUTROPHIL [4]: 967.33 CELLS/uL | BASOPHIL [4]: 0% | EOSINOPHIL [4]: 1% | ERYTHROCYTE COUNT [4]: 5.45 x10E6/uL | HEMATOCRIT [4]: 35.3% | HEMOGLOBIN [4]: 13.57 G/DL | LEUKOCYTE COUNT [4]: 10.03 x10E3/uL | LYMPHOCYTE [4]: 88.67% | MEAN CORPUSCULAR HEMOGLOBIN [4]: 24.87 pg | MEAN CORPUSCULAR HEMOGLOBIN CONCENTRATION [4]: 38.47 G/DL | MEAN CORPUSCULAR VOLUME [4]: 64.67 fL | MONOCYTE [4]: 0% | NEUTROPHIL [4]: 10.33% | NUCLEATED RED BLOOD CELLS [4]: 0 /100WBC | PLATELET COUNT [4]: 1078.67 x10E3/uL | ALANINE AMINOTRANSFERASE [4]: 45 u/L | ALBUMIN [4]: 4.03 G/DL | ALKALINE PHOSPHATASE [4]: 395 u/L | ASPARTATE AMINOTRANSFERASE [4]: 72 u/L | BLOOD UREA NITROGEN [4]: 13 mg/dL | CARBON DIOXIDE [4]: 30.67 mmol/L | CHLORIDE [4]: 99 MEQ/L | CHOLESTEROL [4]: 69.33 mg/dL | CREATINE PHOSPHOKINASE [4]: 188 u/L | CREATININE [4]: 0.17 mg/dL | GLUCOSE [4]: 143.67 mg/dL | LACTATE DEHYDROGENASE [4]: 113.33 u/L | LIPASE [4]: 9.33 u/L | PHOSPHORUS [4]: 11.2 mg/dL | POTASSIUM [4]: 6.21 MEQ/L | SODIUM [4]: 144.27 MEQ/L | TOTAL BILIRUBIN [4]: 0.2 mg/dL | TOTAL PROTEIN [4]: 5.8 G/DL | URIC ACID [4]: 1.2 mg/dL
